The values below come from patent US6586475B1, “β-amyloid protein production/secretion inhibitors” (Takeda Chemical Industries, Ltd., priority 1998, dated 2003).

Test system in the first data set: not listed separately
Put plainly: Penetration in brain. The conditions noted are these: in vivo.
Consider `O=C(NCCN1CCCCC1)c1ccc(OCc2ccc(-c3ccccc3)cc2)cc1` [Example 8, 4-(4-Biphenylylmethoxy)-N-(2-piperidinoethyl)benzamide], for which the penetration in brain result is “excellent penetration in brain”.

The test system of the next data set is amyloid-β protein Aβ1-40. Put plainly: Inhibition of production and/or secretion of Aβ1-40 in IMR-32 cells (EIA of supernatant). The class given is cell-based. The conditions noted are these: test compound 10 μM; human neuroblastoma IMR-32 cells, 24 hours; percentage relative to the control. The method, then: (§1) Compounds of the present invention were tested for an inhibitory activity of the production and/or secretion of amyloid-β protein (references: Science, 264, 1336 (1994) and Biochemistry, 34, 10272 (1995)).
(§2) Human neuroblastoma IMR-32 cells: purchased from American Type Culture Center.
(§3) Standard Aβ1-40 and Aβ1-42: purchased from Bachem Co.
(§4) IMR-32 cells were cultivated in a flask (Falcon, 750 ml) containing 10% FCS/DMEM medium, in an atmosphere of 10% CO2/90% air, at 37° C. to be in confluence. The cultured cells were seeded into a 48-well plate in a density of 2.5×10^5 cells/well, and incubated therein for 3 days under the same conditions as above. Then, the culture medium was removed through suction. […]
(§5) BAN-50 antibody or BNT-77 antibody was used as the primary antibody. […] To determined the Aβ1-42, BC-05 was used as the secondary antibody. […]
(§6) The plate was washed three times with PBS, and 100 μl of an HRP-labeled secondary antibody (BA-27 antibody or BC-o5 antibody labeled with HRP: horseradis peroxidase) as dissolved in a buffer for secondary reaction (20 mM phosphate buffer, pH 7.0; 400 mM NaCl; 2 mM EDTA; 1% BSA) was added thereto. […] Then, using a plate reader (MTP-32 Microplate Reader, by Corona Co.), the sample on the plate was subjected to calorimetric determination (at 450 nm). […]
Turning to `O=C(NCCN1CCCCC1)c1ccc(OCc2ccc(-c3ccccc3)cc2)cc1` [Example 8, 4-(4-Biphenylylmethoxy)-N-(2-piperidinoethyl)benzamide], the “Aβ1-40 (%)” value was determined as 39%.

Another data set deals with amyloid-β protein Aβ1-42. Put plainly: Inhibition of production and/or secretion of Aβ1-42 in IMR-32 cells (EIA of supernatant). Particulars: test compound 10 μM; human neuroblastoma IMR-32 cells, 24 hours; percentage relative to the control. The format is cell-based. How it is done:
as §1, §2, §3, §4, §5, §6
Consider `O=C(NCCN1CCCCC1)c1ccc(OCc2ccc(-c3ccccc3)cc2)cc1` [Example 8, 4-(4-Biphenylylmethoxy)-N-(2-piperidinoethyl)benzamide], for which the “Aβ1-42 (%)” value stood at 63%.

Test system in a further data set: not given
Test: not given
Conditions: not given
Regarding `CCCN(CCC)CCc1ccc(OCc2ccc3ccccc3c2)cc1.Cl`, the melting point was 113 to 115 °C.
On the same count and under the same terms, the figure for `CCCN(CCC)CCc1ccc(OCc2ccc(Cl)cc2Cl)cc1.Cl` is 122 to 123 °C; for `CCCN(CCC)CCc1ccc(OCc2ccc(-c3ccccc3)cc2)cc1.Cl` it is 149 to 150 °C.
Turning to `CCCN(CCC)CCc1ccccc1OCc1ccc2ccccc2c1.Cl`, the melting point fell in the range of 146 to 147 °C.
`CCCN(CCC)CCc1cccc(OCc2ccc3ccccc3c2)c1.Cl`: the melting point was 115 to 116 °C.
On the same count and under the same terms, in the case of `CCCN(CCC)CCc1cccc(OCc2ccc(-c3ccccc3)cc2)c1.Cl` it was 108 to 110 °C; in that of `CCCN(CCC)CCc1cccc(OCc2ccc(Cl)cc2Cl)c1.Cl`, 76 to 78 °C; in that of `CCCN(CCC)CCc1cccc(OCc2cccc3ccccc23)c1.Cl`, 140 to 142 °C.
Take `O=C(NCCN1CCCCC1)c1ccc(NC(=O)c2ccc(-c3ccccc3)cc2)cc1` [Example 26, N-[4-{[2-(Piperidinoethyl)amino]carbonyl}phenyl](4-biphenylyl)carboxamide]: the melting point was 247 to 252 °C (dec.).
`O=C(NCCN1CCCC1)c1ccc(NC(=O)c2ccc(-c3ccccc3)cc2)cc1` [Example 27]: the melting point was 241 to 245 °C (dec.).
